The values that follow come from patent US20250312499A1, “KISSPEPTIN RECEPTOR (KISS1R) TARGETED THERAPEUTICS AND USES THEREOF” (priority 2024, published 2025).

This assay deals with human kisspeptin receptor (Homo sapiens (Human), UniProt Q969F8). Kind of assay: Human KISS1R binding assay (membrane competition binding). Conditions: 90 min at room temperature; competition with 0.2 nM [125I]-metastin (45-54); Flp-In T-Rex 293 kisspeptin membranes; metal complexes nonradioactive Ga, In, Lu; read-out: hKiSSR Binding Ki (90 min). Here is the method: Crude membrane fractions are prepared from Flp-In T-Rex 293 (Thermo Fisher) cell line expressing the human kisspeptin receptor. The cells are grown to 85-100% confluence on standard tissue culture dishes in Dulbecco's Modified Eagles Medium (DMEM) (Corning) supplemented with 10% FBS (Gemini), 1% penicillin-streptomycin-glutamine (Gibco), 500 μg/mL hygromycin, and 15 μg/mL blastacidin. 48 hrs prior to preparing membranes 10 μg/ml of tetracycline is added to the culture media to induce receptor expression. To prepare membranes, cells are scraped and collected in 1× Dulbecco's phosphate buffered saline (Corning) and then pelleted at 1000 RPMs. The cell pellet is reconstituted in membrane preparation buffer (20 mM HEPES, 6 mM MgCl2 and 1 mM EGTA, protease inhibitor tablets (Pierce), pH 7.4) and placed in a cell disruption vessel (Parr Instrument company) at 1000 PSI for 30 min on ice. The pressurized contents are then released and spun down at 1000 RPMs and the supernatant is collected and further centrifuged at 15,000 RPMs to pellet the membranes. The membrane pellet is resuspended in membrane preparation buffer, snap frozen and stored at −80° C. for later use.
Sequence of human kisspeptin receptor (Q969F8 whole entry): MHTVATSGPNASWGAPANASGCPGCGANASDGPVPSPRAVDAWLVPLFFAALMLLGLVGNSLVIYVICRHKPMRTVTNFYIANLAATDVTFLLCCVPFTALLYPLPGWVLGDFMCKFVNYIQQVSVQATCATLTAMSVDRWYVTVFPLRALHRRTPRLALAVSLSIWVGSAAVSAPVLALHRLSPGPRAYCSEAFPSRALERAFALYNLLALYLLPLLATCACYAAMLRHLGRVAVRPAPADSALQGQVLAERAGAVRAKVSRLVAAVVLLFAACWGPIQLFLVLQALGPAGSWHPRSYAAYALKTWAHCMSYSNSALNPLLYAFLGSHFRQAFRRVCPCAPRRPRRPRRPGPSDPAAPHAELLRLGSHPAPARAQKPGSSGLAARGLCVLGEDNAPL
The human kisspeptin membrane binding assay utilizes the following components: radiolabel [^125I]-metastin (45-54) (human) (Perkinhmer), crude Flp-In T-Rex 293 kisspeptin membranes, and competing small molecule and peptide ligands. The assay is initiated by combining in assay buffer (50 mM TrisHCl, 5 mM MgCl2, 2 mM EGTA, 10 mM CaCl2, 0.1% BSA, pH 7.4) a dose response of competing ligand (final concentrations are typically 0-10,000 nM), 5-10 μg of Flp-In T-Rex 293 kisspeptin membranes, and 0.2 n M [^125I]-metastin (45-54) in a 96-well assay plate and allowed to incubate 90 minutes at room temperature. Assay contents are then filtered through unifilter CF/C: microplates (PerkinElmer) pre-soaked with 0.5% BSA and washed with 9×400 μL of cold wash buffer (10 mM HEPES, 500 mM NaCl, 0.1% Tween-20, pH7.4). Assay plates are read using a Microbeta^2 (PerkinElmer) and Ki values for compounds are determined using a GraphPad Prism 9.3 non-linear regression analysis.

Numbered stars: 1 amine (or outer) side, 2 acyl side, 3 side chain; on linkers, the order of the positions; unused ones are H or OH. Square brackets hold non-standard residues; d marks the D form. Peptide text beside a SMILES is read from it. * marks the point of attachment. DOTA = O=C(O)CN1CCN(CC(=O)O)CCN(CC(=O)*)CCN(CC(=O)O)CC1; Gly(N-(3-F-4-Me-benzyl)) = Cc1ccc(CNCC(=O)*)cc1F; Phe(3-F) = N[C@@H](Cc1cccc(F)c1)C(=O)O; Trx = NC[C@H]1CC[C@H](C(=O)O)CC1; X1 = O=C(CN1CCC(N[*:1])CC1)[*:2]; d4Pal = N[C@H](Cc1ccncc1)C(=O)O; 4Amb = NCc1ccc(C(=O)O)cc1; Api = NC1(C(=O)O)CCNCC1; Ahx = NCCCCCC(=O)O; azaGly = NNC(=O)O

For the compound `Cc1ccc(CNCC(=O)N2CCC(NC(=O)[C@H](CC(C)C)NC(=O)NNC(=O)[C@H](Cc3ccccc3)NC(=O)[C@@H](CC(N)=O)NC(=O)CN3CCN(CC(=O)O)CCN(CC(=O)O)CCN(CC(=O)O)CC3)(C(=O)N[C@@H](Cc3c[nH]c4ccccc34)C(N)=O)CC2)cc1F` [Compound 21] ({DOTA}-[dN]F[azaGly]L[Api](Gly(N-(3-F-4-Me-benzyl)))W-NH2), the Ki (as a rule, a dissociation constant, usually derived from enzyme kinetics or from competition with a known ligand) lay in the range of 10 to 100 nM. The same measure for `Cc1ccc(CNCC(=O)N2CCC(NC(=O)[C@H](CC(C)C)NC(=O)NNC(=O)[C@H](Cc3ccccc3)NC(=O)c3ccc(CNC(=O)CCCCCNC(=O)CN4CCN(CC(=O)O)CCN(CC(=O)O)CCN(CC(=O)O)CC4)cc3)(C(=O)N[C@@H](Cc3c[nH]c4ccccc34)C(N)=O)CC2)cc1F` [Compound 22] ({DOTA-Ahx-4Amb}-F[azaGly]L[Api](Gly(N-(3-F-4-Me-benzyl)))W-NH2): < 10 nM; for `Cc1ccc(CNCC(=O)N2CCC(NC(=O)[C@H](CC(C)C)NC(=O)NNC(=O)[C@H](Cc3ccccc3)NC(=O)[C@@H](NC(=O)[C@H](CC(N)=O)NC(=O)[C@@H](Cc3ccncc3)NC(=O)[C@@H](Cc3ccc(O)cc3)NC(=O)CN3CCN(CC(=O)O)CCN(CC(=O)O)CCN(CC(=O)O)CC3)[C@@H](C)O)(C(=O)N[C@@H](Cc3c[nH]c4ccccc34)C(N)=O)CC2)cc1F` [Compound 23] ({DOTA}-[dY][d4Pal]NTF[azaGly]L[Api](Gly(N-(3-F-4-Me-benzyl)))W-NH2): < 10 nM; for `Cc1ccc(CNCC(=O)N2CCC(NC(=O)[C@H](CC(C)C)NC(=O)NNC(=O)[C@H](Cc3cccc(F)c3)NC(=O)[C@@H](NC(=O)[C@H](CC(N)=O)NC(=O)[C@H](CCC(=O)O)NC(=O)[C@@H](Cc3ccc(O)cc3)NC(=O)CN3CCC(NC(=O)CN4CCN(CC(=O)O)CCN(CC(=O)O)CCN(CC(=O)O)CC4)CC3)[C@@H](C)O)(C(=O)N[C@@H](Cc3c[nH]c4ccccc34)C(N)=O)CC2)cc1F` [Compound 24] ({DOTA}-[X1][dY]ENT[Phe(3-F)][azaGly]L[Api](Gly(N-(3-F-4-Me-benzyl)))W-NH2): < 10 nM. As for `Cc1ccc(CNCC(=O)N2CCC(NC(=O)[C@H](CC(C)C)NC(=O)NNC(=O)[C@H](Cc3ccccc3)NC(=O)[C@@H](NC(=O)[C@H](CC(N)=O)NC(=O)CCCCCNC(=O)CN3CCN(CC(=O)O)CCN(CC(=O)O)CCN(CC(=O)O)CC3)[C@@H](C)O)(C(=O)N[C@@H](Cc3c[nH]c4ccccc34)C(N)=O)CC2)cc1F` [Compound 26] ({DOTA-Ahx}-NTF[azaGly]L[Api](Gly(N-(3-F-4-Me-benzyl)))W-NH2), the Ki was < 10 nM. With `Cc1ccc(CNCC(=O)N2CCC(NC(=O)[C@H](CC(C)C)NC(=O)NNC(=O)[C@H](Cc3cccc(F)c3)NC(=O)[C@@H](NC(=O)[C@H](CC(N)=O)NC(=O)[C@H](CCCCN)NC(=O)[C@@H](Cc3ccc(O)cc3)NC(=O)CCCCCNC(=O)CN3CCN(CC(=O)O)CCN(CC(=O)O)CCN(CC(=O)O)CC3)[C@@H](C)O)(C(=O)N[C@@H](Cc3c[nH]c4ccccc34)C(N)=O)CC2)cc1F` [Compound 27] ({DOTA-Ahx}-[dY]KNT[Phe(3-F)][azaGly]L[Api](Gly(N-(3-F-4-Me-benzyl)))W-NH2), the Ki was < 10 nM. In the case of `Cc1ccc(CNCC(=O)N2CCC(NC(=O)[C@H](CC(C)C)NC(=O)NNC(=O)[C@H](Cc3ccccc3)NC(=O)CN3CCC(NC(=O)CN4CCN(CC(=O)O)CCN(CC(=O)O)CCN(CC(=O)O)CC4)CC3)(C(=O)N[C@@H](Cc3c[nH]c4ccccc34)C(N)=O)CC2)cc1F` [Compound 28] ({DOTA}-[X1]F[azaGly]L[Api](Gly(N-(3-F-4-Me-benzyl)))W-NH2), the Ki is < 10 nM. On to `Cc1ccc(CNCC(=O)N2CCC(NC(=O)[C@H](CC(C)C)NC(=O)NNC(=O)[C@H](Cc3ccccc3)NC(=O)[C@@H](NC(=O)[C@H](CC(N)=O)NC(=O)[C@@H](Cc3ccncc3)NC(=O)[C@@H](Cc3ccc(O)cc3)NC(=O)CN3CCC(NC(=O)CN4CCN(CC(=O)O)CCN(CC(=O)O)CCN(CC(=O)O)CC4)CC3)[C@@H](C)O)(C(=O)N[C@@H](Cc3c[nH]c4ccccc34)C(N)=O)CC2)cc1F` [Compound 29] ({DOTA}-[X1][dY][d4Pal]NTF[azaGly]L[Api](Gly(N-(3-F-4-Me-benzyl)))W-NH2), for which the Ki is < 10 nM.

For the compound `Cc1ccc(CNCC(=O)N2CCC(NC(=O)[C@H](CC(C)C)NC(=O)NNC(=O)[C@H](Cc3ccccc3)NC(=O)[C@@H](NC(=O)[C@H](CC(N)=O)NC(=O)[C@@H](Cc3c[nH]c4ccccc34)NC(=O)CCCCCNC(=O)CN3CCN(CC(=O)O)CCN(CC(=O)O)CCN(CC(=O)O)CC3)[C@@H](C)O)(C(=O)N[C@@H](Cc3c[nH]c4ccccc34)C(N)=O)CC2)cc1F` [Compound 30] ({DOTA-Ahx}-[dW]NTF[azaGly]L[Api](Gly(N-(3-F-4-Me-benzyl)))W-NH2), the inhibition constant Ki is < 10 nM.

As for `Cc1ccc(CNCC(=O)N2CCC(NC(=O)[C@H](CC(C)C)NC(=O)NNC(=O)[C@H](Cc3ccccc3)NC(=O)[C@@H](NC(=O)[C@H](CC(N)=O)NC(=O)[C@@H](Cc3ccncc3)NC(=O)[C@@H](Cc3ccc(O)cc3)NC(=O)CCCCCNC(=O)CN3CCN(CC(=O)O)CCN(CC(=O)O)CCN(CC(=O)O)CC3)[C@@H](C)O)(C(=O)N[C@@H](Cc3c[nH]c4ccccc34)C(N)=O)CC2)cc1F` [Compound 31] ({DOTA-Ahx}-[dY][d4Pal]NTF[azaGly]L[Api](Gly(N-(3-F-4-Me-benzyl)))W-NH2), the Ki was < 10 nM. Take `Cc1ccc(CNCC(=O)N2CCC(NC(=O)[C@H](CC(C)C)NC(=O)NNC(=O)[C@H](Cc3ccccc3)NC(=O)[C@@H](NC(=O)[C@H](CC(N)=O)NC(=O)[C@@H](Cc3c[nH]c4ccccc34)NC(=O)[C@@H](Cc3c[nH]cn3)NC(=O)[C@@H](Cc3ccc(O)cc3)NC(=O)CCCCCNC(=O)CN3CCN(CC(=O)O)CCN(CC(=O)O)CCN(CC(=O)O)CC3)[C@@H](C)O)(C(=O)N[C@@H](Cc3c[nH]c4ccccc34)C(N)=O)CC2)cc1F` [Compound 32] ({DOTA-Ahx}-[dY][dH][dW]NTF[azaGly]L[Api](Gly(N-(3-F-4-Me-benzyl)))W-NH2): the Ki is < 10 nM. For `Cc1ccc(CNCC(=O)N2CCC(NC(=O)[C@H](CC(C)C)NC(=O)NNC(=O)[C@H](Cc3ccccc3)NC(=O)[C@@H](NC(=O)[C@H](CC(N)=O)NC(=O)[C@@H](Cc3c[nH]c4ccccc34)NC(=O)[C@@H](Cc3c[nH]cn3)NC(=O)[C@@H](Cc3ccc(O)cc3)NC(=O)CN3CCC(NC(=O)CN4CCN(CC(=O)O)CCN(CC(=O)O)CCN(CC(=O)O)CC4)CC3)[C@@H](C)O)(C(=O)N[C@@H](Cc3c[nH]c4ccccc34)C(N)=O)CC2)cc1F` [Compound 33] ({DOTA}-[X1][dY][dH][dW]NTF[azaGly]L[Api](Gly(N-(3-F-4-Me-benzyl)))W-NH2), the Ki was < 10 nM. For the compound `Cc1ccc(CNCC(=O)N2CCC(NC(=O)[C@H](CC(C)C)NC(=O)NNC(=O)[C@H](Cc3cccc(F)c3)NC(=O)[C@@H](NC(=O)[C@H](CC(N)=O)NC(=O)[C@H](Cc3c[nH]c4ccccc34)NC(=O)[C@@H](Cc3ccc(O)cc3)NC(=O)CCCCCNC(=O)CN3CCN(CC(=O)O)CCN(CC(=O)O)CCN(CC(=O)O)CC3)[C@@H](C)O)(C(=O)N[C@@H](Cc3c[nH]c4ccccc34)C(N)=O)CC2)cc1F` [Compound 35] ({DOTA-Ahx}-[dY]WNT[Phe(3-F)][azaGly]L[Api](Gly(N-(3-F-4-Me-benzyl)))W-NH2), the Ki was < 10 nM.

For the compound `Cc1ccc(CNCC(=O)N2CCC(NC(=O)[C@H](CC(C)C)NC(=O)NNC(=O)[C@H](Cc3cccc(F)c3)NC(=O)[C@@H](NC(=O)[C@H](CC(N)=O)NC(=O)[C@H](CCC(=O)O)NC(=O)[C@@H](Cc3ccc(O)cc3)NC(=O)CCCCCNC(=O)CN3CCN(CC(=O)O)CCN(CC(=O)O)CCN(CC(=O)O)CC3)[C@@H](C)O)(C(=O)N[C@@H](Cc3c[nH]c4ccccc34)C(N)=O)CC2)cc1F` [Compound 36] ({DOTA-Ahx}-[dY]ENT[Phe(3-F)][azaGly]L[Api](Gly(N-(3-F-4-Me-benzyl)))W-NH2), the Ki is < 10 nM. Turning to `Cc1ccc(CNCC(=O)N2CCC(NC(=O)[C@H](CC(C)C)NC(=O)NNC(=O)[C@H](Cc3ccccc3)NC(=O)[C@@H](N)CCCCNC(=O)CN3CCN(CC(=O)O)CCN(CC(=O)O)CCN(CC(=O)O)CC3)(C(=O)N[C@@H](Cc3c[nH]c4ccccc34)C(N)=O)CC2)cc1F` [Compound 37] (H-K(DOTA)F[azaGly]L[Api](Gly(N-(3-F-4-Me-benzyl)))W-NH2), the Ki is < 10 nM. On to `Cc1ccc(CNCC(=O)N2CCC(NC(=O)[C@H](CC(C)C)NC(=O)NNC(=O)[C@H](Cc3ccccc3)NC(=O)[C@H]3CC[C@H](CNC(=O)CCCCCNC(=O)CN4CCN(CC(=O)O)CCN(CC(=O)O)CCN(CC(=O)O)CC4)CC3)(C(=O)N[C@@H](Cc3c[nH]c4ccccc34)C(N)=O)CC2)cc1F` [Compound 38] ({DOTA-Ahx-Trx}-F[azaGly]L[Api](Gly(N-(3-F-4-Me-benzyl)))W-NH2), for which the Ki was > 100 nM.
